Test results: US6399607B1, “Aminomethylene amide analogs of pyrazinamide with intracellular antimycobacterial activity against pyrazinamide-resistant mycobacteria combined with a rifamycin” (priority 1999, dated 2002)
Values after ≈ are worked out from the molar mass of the structure shown.

Key:
M. kansasii = assay: MIC in modified 7H10 broth against M. kansasii (Tables 3, 4); format: cell-based, Mycobacterium kansasii; set-up: unit not given beside the values; conditions: clinical isolate S
M. avium complex = assay: MIC in modified 7H10 broth against M. avium complex (Tables 3, 4); format: cell-based, Mycobacterium avium; set-up: unit not given here
M. tuberculosis [1] = assay: MIC in modified 7H10 broth against M. tuberculosis (Table 3); format: cell-based, Mycobacterium tuberculosis; set-up: MIC, M. tuberculosis ATCC 35801 / MIC, M. tuberculosis ATCC 27294: unit not given here; conditions: for MIC, M. tuberculosis ATCC 27294: ATCC 27294 (H37RV, PZA susceptible), pH 5.8; for MIC, M. tuberculosis ATCC 35801: ATCC 35801, pH 5.8
M. tuberculosis [2] = assay: Murine model of tuberculosis, combination with KRM-1648 (RLZ) (FIG. 2); format: in vivo; conditions: mice, in combination with KRM-1648 (Rifalazil, RLZ)
M. tuberculosis [3] = assay: microbe, parasite or virus in culture; format: cell-based, Mycobacterium tuberculosis; set-up: MIC, pansusceptible strain, pH 5.5 / MIC, Pansusceptible strain, pH 6.0 / MIC, Pansusceptible strain, pH 6.8: unit not given here; conditions: for MIC, Pansusceptible strain, pH 6.0 / MIC, Pansusceptible strain, pH 6.8: 7H12 BACTEC broth, three pansusceptible strains; for MIC: Mycobacterium tuberculosis, same at pH 6.0 and 6.8
[4] = tested on: Mtb organisms which have been phagocytized; conditions: reduced efficacy after 4 to 7 days; cited from earlier work
Mycobacterium avium = conditions: Heifets et al, Am. Rev. Resp. Dis. 134: 1287-1288 (1986); cited from earlier work
[5] = cited from earlier work
[6] = Table 3, modified 7H10 broth, pH 5.8
[7] = Table 3, ATCC 49601 (serotype 1), modified 7H10 broth, pH 5.8
[8] = Table 3, strain 101 (serotype 1), modified 7H10 broth, pH 5.8

| Structure (SMILES) | MIC, M. kansasii S (M. kansasii; [6]) | MIC, M. avium complex ATCC 49601 (M. avium complex; [7]) | MIC, M. avium complex 101 (M. avium complex; [8]) | MIC, M. tuberculosis ATCC 27294 (M. tuberculosis [1]) | MIC, M. tuberculosis ATCC 35801 (M. tuberculosis [1]) | MIC, M. kansasii S (M. kansasii; Table 4) | MIC, M. avium complex ATCC 49601 (M. avium complex; Table 4, ATCC 49601) | MIC, M. avium complex 101 (M. avium complex; Table 4, strain 101) | other results |
| --- | --- | --- | --- | --- | --- | --- | --- | --- | --- |
| CCN(CC)CNC(=O)c1cnc(N(CC)CC)cn1 [Compound 17, 5-diethylamino-pyrazinoic acid diethylaminomethyl-amide] | >128 | >128 | (>128 | 64 | 16 | – | – | – | – |
| CCCCN(CC)CNC(=O)c1cnccn1 [Compound 5] | – | – | – | – | – | >128 | >128 | 128 | – |
| CN1CCN(CNC(=O)c2cnccn2)CC1 [Compound 7, (piperazin-1-ylmethyl)-amide] | – | – | – | – | – | >128 | >128 | >128 | – |
| CCN(CC)CNC(=O)c1cnccn1 [Compound 2, pyrazine-2-carboxylic acid diethylaminomethyl-amide] | 128 | 128 | 128 | 16 | 2 | – | – | – | reduction of CFUs / infection in murine model of tuberculosis (M. tuberculosis [2]): superior or equivalent to PZA in reducing CFUs; MIC, Pansusceptible strain, pH 6.0 (M. tuberculosis [3]): 100; MIC, Pansusceptible strain, pH 6.8 (M. tuberculosis [3]): 100; MIC (M. tuberculosis [3]; 7H12 broth): 100 µg/mL (≈ 480 µM) |
| O=C(NCN1CCCC1)c1cnccn1 [Compound 1, pyrazine-2-carboxylic acid (pyrrolidin-1-ylmethyl)-amide] | 128 | >128 | >128 | 16 | 8 | 128 | >128 | >128 | reduction of CFUs / infection in murine model of tuberculosis (M. tuberculosis [2]): superior or equivalent to PZA in reducing CFUs; MIC, Pansusceptible strain, pH 6.0 (M. tuberculosis [3]): 100; MIC, Pansusceptible strain, pH 6.8 (M. tuberculosis [3]): 100; MIC, pansusceptible strain, pH 5.5 (M. tuberculosis [3]; pansusceptible strain, pH 5.5): 50 |
| O=C(NCN1CCOCC1)c1cnccn1 [Compound 4, (morpholin-4-ylmethyl)-amide] | 128 | >128 | >128 | 32 | 16 | 128 | >128 | 128 | – |
| CCCCN(C)CNC(=O)c1cnccn1 [Compound 6] | – | – | – | – | – | 128 | >128 | 128 | – |
| CCCCN(CCCC)CNC(=O)c1cnccn1 [Compound 10] | – | – | – | – | – | >128 | >128 | >128 | – |
| NC(=O)c1cnccn1 [PZA, Pyrazinamide] | 2048 | >2048 | >2048 | 16 | 32 | 2048 | >2048 | >2048 | activity in macrophages [4]: either weakly or clearly bacteriostatic in macrophages; reduction of CFUs / infection in murine model of tuberculosis (M. tuberculosis [2]): effective in reducing infection; activity against Mycobacterium avium (Mycobacterium avium): Neither is it active; difference in MICs under different pH conditions (M. tuberculosis [3]; 7H12 broth, pH 6.0 v. 6.8): dramatic difference; pKa [5]: 0.5 |
| CCCN(CCC)CNC(=O)c1cnccn1 [Compound 9, dipropylaminomethyl-amide] | – | – | – | – | – | 128 | >128 | 128 | – |
| CN(CNC(=O)c1cnccn1)Cc1ccccc1 [Compound 8, [(benzyl-methyl-amino)-methyl]-amide] | – | – | – | – | – | 128 | 128 | 128 | – |
| NC(=O)c1cnc(Cl)cn1 [Compound 5-Chloro-PZA, 5-chloro-pyrazinamide, reference compound] | 32 | 32 | 32 | 16 | 16 | 32 | 32 | 32 | – |
| O=C(NCN1CCOCC1)c1cnccn1 [MZA, morphazinamide] | – | – | – | – | – | – | – | – | MIC (M. tuberculosis [3]; 7H12 broth): 100 µg/mL (≈ 450 µM) |
